Assay results from ChEMBL document CHEMBL1150449, “Conversion of acyclic nonpeptide CCK antagonists into CCK agonists” (Bioorg Med Chem Lett, 1997).

Key:
[1] = molecular target: Cholecystokinin receptor type A (Cavia porcellus); experiment: Concentration of compound that induced 50% of the maximal contraction in guinea pig gallbladder tissue when tested in vitro
[2] = molecular target: T1, Gastrin/cholecystokinin type B receptor (Homo sapiens, UniProt P32239); experiment: Tested for 50% displacement of [125I]CCK-8 from membrane preparation isolated from CHO-K1 cells stably transfected with the cDNA of human Cholecystokinin type B receptor; type: cell membranes
T1 sequence (P32239 whole entry): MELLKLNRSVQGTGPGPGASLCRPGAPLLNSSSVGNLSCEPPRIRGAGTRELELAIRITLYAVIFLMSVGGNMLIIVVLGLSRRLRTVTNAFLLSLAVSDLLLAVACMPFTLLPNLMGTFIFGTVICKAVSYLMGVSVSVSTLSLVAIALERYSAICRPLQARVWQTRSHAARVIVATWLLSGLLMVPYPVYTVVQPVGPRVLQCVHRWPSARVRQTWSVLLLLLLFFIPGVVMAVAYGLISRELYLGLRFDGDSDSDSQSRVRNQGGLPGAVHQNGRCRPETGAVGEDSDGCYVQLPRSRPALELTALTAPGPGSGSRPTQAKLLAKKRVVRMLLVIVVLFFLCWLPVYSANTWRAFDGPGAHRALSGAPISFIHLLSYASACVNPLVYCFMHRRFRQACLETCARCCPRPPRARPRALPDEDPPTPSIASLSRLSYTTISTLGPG

[3] = molecular target: T2, Cholecystokinin receptor type A (Homo sapiens, UniProt P32238); experiment: Tested for the 50% displacement of [125I]CCK-8 from membrane preparation isolated from CHO-K1 cells stably transfected with the cDNA of human Cholecystokinin type A receptor; type: cell membranes
T2 sequence (P32238 whole entry): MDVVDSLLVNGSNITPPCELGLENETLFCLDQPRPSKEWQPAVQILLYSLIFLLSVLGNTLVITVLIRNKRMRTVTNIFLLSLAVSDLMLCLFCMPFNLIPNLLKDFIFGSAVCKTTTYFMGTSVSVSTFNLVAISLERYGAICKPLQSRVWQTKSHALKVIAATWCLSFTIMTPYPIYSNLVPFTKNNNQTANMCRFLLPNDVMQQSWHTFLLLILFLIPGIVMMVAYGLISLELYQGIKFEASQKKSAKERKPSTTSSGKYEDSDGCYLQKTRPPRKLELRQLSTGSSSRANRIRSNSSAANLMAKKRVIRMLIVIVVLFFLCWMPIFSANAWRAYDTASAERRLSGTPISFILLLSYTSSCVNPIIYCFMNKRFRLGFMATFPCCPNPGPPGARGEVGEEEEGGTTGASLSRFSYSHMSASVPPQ

Mus musculus = experiment: Tested in vivo for the relative efficacy (relative to CCK-8 (1 nmol/kg)) for mouse gallbladder emptying after ip administration (0.1 umol/kg); type: functional

SMILES	EC50 [1] [nM]	IC50 [2] [nM]	IC50 [3] [nM]	Relative efficacy (Mus musculus)
CC(C)N(C(=O)CN(C(=O)[C@@H](CCC(=O)O)NC(=O)Nc1ccccc1)c1ccccc1)c1ccccc1	210	10000	1580	0.6
CCCCCN(CC(=O)N(c1ccccc1)C(C)C)C(=O)[C@@H](CCC(=O)O)NC(=O)Nc1ccccc1	–	–	–	0.3
CC(C)N(C(=O)CN(C(=O)CNC(=O)Nc1ccccc1)c1ccccc1)c1ccccc1	300	1580	3160	<0.2

Second part, led by results:

EC50 [1] [nM]	IC50 [2] [nM]	IC50 [3] [nM]	SMILES	Relative efficacy (Mus musculus)
110	31600	251	COc1ccc(N(C(=O)CN(C(=O)[C@@H](CCC(=O)O)NC(=O)Nc2ccccc2)c2ccccc2)C(C)C)cc1	0.8
5600	–	–	COc1ccc(N(C(=O)CN(C(=O)[C@H](CCC(=O)O)NC(=O)Nc2ccccc2)c2ccccc2)C(C)C)cc1	–
